The values that follow come from patent publication US7960407B2, “Crystal forms of an imidazole derivative” (Requalia Pharma Inc., priority 2006, dated 2011).

Molecules are shown by their SMILES.

The nature of series [1]: solid-state stability of the crystal forms. The class given is physicochemical. Particulars: qualitative comparison of the forms identified.
The nature of series [2]: hygroscopicity of the crystal form. It is filed as physicochemical. As to conditions: solid form, qualitative.

On to `CCc1nc2c(C)nc(C)cc2n1-c1ccc(CCNC(=O)NS(=O)(=O)c2ccc(C)cc2)cc1` [Crystal Form G, N-[({2-[4-(2-Ethyl-4,6-dimethyl-1H-imidazo[4,5-c]pyridin-1-yl)phenyl]ethyl}amino)carbonyl]-4-methylbenzenesulfonamide], for which the “stability of the crystal form” value in series [1] was “less stable”.

In the case of `CCc1nc2c(C)nc(C)cc2n1-c1ccc(CCNC(=O)NS(=O)(=O)c2ccc(C)cc2)cc1` [Crystal Form C, N-[({2-[4-(2-Ethyl-4,6-dimethyl-1H-imidazo[4,5-c]pyridin-1-yl)phenyl]ethyl}amino)carbonyl]-4-methylbenzenesulfonamide], the “stability of the crystal form” value is reported as “less stable” in series [1] and “(metastable)” in series [1] (listed as C).

In the case of `CCc1nc2c(C)nc(C)cc2n1-c1ccc(CCNC(=O)NS(=O)(=O)c2ccc(C)cc2)cc1` [Polymorph Form B, N-[({2-[4-(2-Ethyl-4,6-dimethyl-1H-imidazo[4,5-c]pyridin-1-yl)phenyl]ethyl}amino)carbonyl]-4-methylbenzenesulfonamide], in series [1], the “stability of the crystal form” value is reported as “stable”.

Consider `CCc1nc2c(C)nc(C)cc2n1-c1ccc(CCNC(=O)NS(=O)(=O)c2ccc(C)cc2)cc1` [Polymorph Form A, N-[({2-[4-(2-Ethyl-4,6-dimethyl-1H-imidazo[4,5-c]pyridin-1-yl)phenyl]ethyl}amino)carbonyl]-4-methylbenzenesulfonamide], for which the hygroscopicity entry in series [2] is given as “non-hygroscopic”. The “stability of the crystal form” value in series [1] is recorded as “most stable”.

As to `CCc1nc2c(C)nc(C)cc2n1-c1ccc(CCNC(=O)NS(=O)(=O)c2ccc(C)cc2)cc1` [Example 2, 2-ETHYL-4,6-DI METHYL-1-(4-{2-[({[(4-METHYLPHENYL)SULFONYL]AMINO}CARBONYL)AMINO]ETHYL}PHENYL)-1H-IMIDAZO[4,5-c]PYRIDINE, reference compound], the “stability of the crystal form” value in series [1] (listed as N-[({2-[4-(2-Ethyl-4,6-dimethyl-1H-imidazo[4,5-c]pyridin-1-yl)phenyl]ethyl}amino) was “unstable”.

On to `CCc1nc2c(C)nc(C)cc2n1-c1ccc(CCNC(=O)NS(=O)(=O)c2ccc(C)cc2)cc1` [Crystal Form D, N-[({2-[4-(2-Ethyl-4,6-dimethyl-1H-imidazo[4,5-c]pyridin-1-yl)phenyl]ethyl}amino)carbonyl]-4-methylbenzenesulfonamide], for which the “stability of the crystal form” value in series [1] is reported as “less stable”.
